{"source": "patent US20260117184A1", "about": "“SYSTEM AND METHOD TO DIRECT THE DIFFERENTIATION OF PLURIPOTENT STEM CELL-DERIVED ODONTOBLASTS” (UNIVERSITY OF WASHINGTON, priority 2022, published 2026)", "tested_on": "hiPSC derived odontoblast cells (iOB)", "assay": "qPCR of odontoblast markers (Example 2)", "type": "cell-based, human", "settings": "iOB bFGF (100 ng/mL, 14 days) compared to conventional odontoblast differentiation method (OB)", "description": "This project applies the DPSC derived to odontoblast protocol previously described by the lab (30), modified for hiPSC and to reflect the full signaling pathway activities as detected by the sci-RNA-seq analysis (FIG. 11A; FIGS. 15B and 15C). […] Odontogenic medium was supplemented with 50 ng/mL BMP4 (Stemcell Technologies 78211) for 7 days followed by 25 ng/mL BMP4 (Stemcell Technologies 78211) and 400 nM SAG (Stemcell Technologies 73412) for 7 days (iOB); 100 ng/mL C6 (1,2) for 14 days (iOB C6); 100 ng/mL C6 for 7 days followed by 100 ng/mL mb7 (31,32) for 7 days (iOB C6 to mb7); or 100 ng/mL recombinant basic FGF (Gibco 13256-029) for 14 days (iOB bFGF). […]\nTo analyze gene expression, cells were dissociated and lysed with Trizol (Life Technology) with cell pellets stored at −80° C. RNA purification is performed via TURBO DNA-Free™ Kit (Invitrogen) or Aurum™ Total RNA Mini Kit (Bio-Rad), purity and concentration quantification via Nanodrop ND-1000 (Thermo Fisher Scientific). cDNA synthesis via iScript™ cDNA Synthesis Kit (Bio-Rad) or Applied Biosystems™ High-Capacity cDNA Reverse Transcription Kit (Thermo Fisher Scientific), and qPCR performed using oligonucleotide primers for neural crest and odontoblast markers (Table 3), SYBR Green reporter (Applied Biosystems) and 7300 Real-Time PCR System (Applied Biosystems). […]"}
{"substance": "bFGF: recombinant basic FGF (Gibco 13256-029)", "values": [{"measurement": "DSPP and DMP1 expression", "value": "increased DSPP and DMP1 expression"}]}
